This note sets out measurements from BindingDB's records for doi:10.7270/Q2057DDB (Nmmlsc, 2011).

A word on the EC50: it is the concentration giving half of the maximal effect. Low values mean higher potency in that assay, high ones lower potency in that assay.

The first assay addresses T1, Vacuolar aminopeptidase 1 (Saccharomyces cerevisiae (strain ATCC 204508 / S288c), UniProt P14904).
T1 sequence (P14904 whole entry): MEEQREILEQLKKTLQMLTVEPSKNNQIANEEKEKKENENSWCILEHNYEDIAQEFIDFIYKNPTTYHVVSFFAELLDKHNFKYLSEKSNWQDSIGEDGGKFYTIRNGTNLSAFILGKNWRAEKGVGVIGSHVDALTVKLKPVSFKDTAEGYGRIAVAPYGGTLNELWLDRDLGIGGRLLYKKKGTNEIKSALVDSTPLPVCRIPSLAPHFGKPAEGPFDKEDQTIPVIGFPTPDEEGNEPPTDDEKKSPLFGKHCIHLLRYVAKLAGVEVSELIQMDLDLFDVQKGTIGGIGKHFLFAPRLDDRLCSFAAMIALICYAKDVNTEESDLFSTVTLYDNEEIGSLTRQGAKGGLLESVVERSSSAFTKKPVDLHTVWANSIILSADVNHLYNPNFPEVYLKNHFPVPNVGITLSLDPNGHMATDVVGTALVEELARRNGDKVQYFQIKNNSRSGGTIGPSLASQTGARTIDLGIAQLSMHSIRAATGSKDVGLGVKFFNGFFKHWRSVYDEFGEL
The experiment in a line: yeast LAP4 reporter analogs, concentration series – cell-based, cherry pick 3, flow cytometry, SAR follow-up (AID 488823).
Details: not given
The compound `NC(=O)c1ccnc2c(O)cccc12` [8-hydroxyquinoline-4-carboxamide;2,2,2-trifluoroacetic acid] showed an EC50 of 35.4 µM.

The same assay, now with this note: inactive by the depositor's call.
For the compound `CCOC(=O)CS(=O)(=O)c1nc(-c2ccccc2)cc(C(F)(F)F)n1` [2-[4-phenyl-6-(trifluoromethyl)pyrimidin-2-yl]sulfonylacetic acid ethyl ester], the midpoint of the response, the EC50, lay at 41.2 µM. In other words, the double-digit micromolar range. Take `COc1cccc2c(Cl)c(CCCl)c(C)nc12` [MLS000720591]: the EC50 stood at 86.4 µM. Against the preceding compound, the EC50 is about 2.1-fold higher. Same read-out and setting: the result for `Oc1ccc(Cl)c2cccnc12` [MLS002695956] reads 208 µM; that for `CCC(C)Nc1nc(N)c([N+](=O)[O-])c(Nc2cc(OC)ccc2OC)n1` (stereo not drawn) [N2-butan-2-yl-N4-(2,5-dimethoxyphenyl)-5-nitro-pyrimidine-2,4,6-triamine], 37.3 µM. Still for that read-out and setting: next, `Cn1cccc1C(=O)Nc1nc(-c2ccccn2)cs1` [SMR000064459]: 79.6 µM; `CCC(C)Nc1nc(N)c([N+](=O)[O-])c(Nc2ccccc2OC)n1` (stereo not drawn) [SMR000434817]: 35.9 µM; `CCc1sc(C(=O)Nc2nc(-c3ccccn3)cs2)cc1C` [SMR001314827]: 105 µM.
